In patent US20220160779A1, “COMPOSITION FOR PROMOTING CARTILAGE TISSUE REGENERATION” (National University Corporation Tokyo Medical and Dental …, priority 2019, published 2022):

How the values were obtained:
[1] = system: rheumatoid arthritis-derived synovial cells (mesenchymal cells); settings: cited from earlier work
[2] = system: p44/42 MAPK (Erk1/2); assay: Western blotting, phosphorylation of p44/42 MAPK (Erk1/2) in synovial MSCs; assay type: cell-based, human; settings: FIG. 5F
Procedure: Synovial MSCs were seeded in 6 cm dishes to reach a cell count of 2×10^5, and cultured in normal growth medium for 1 day. The medium was replaced with fresh medium with reduced amount of FBS (MEM-alpha, 0.5% FBS and antibiotics) and cultured for one more day. The cells were treated with rh Activin A and/or PDGF-AA (amount 3 times the ED50) for up to 30 minutes. Then, those cells were lysed with cell lysis buffer (#9803S; Cell Signaling Technology, MA) to prepare total cell lysate.
Western blotting was performed as described in Uomizu, M. et al, J Med Dent Sci. vol. 65, pp. 73 to 82. The antibodies used were purchased from Cell Signaling Technology (phospho-p44/42 (#4370), p44/42 (#9102), phospho-Akt (#9271), and Akt (#9272)).

[3] = system: rat model of total articular cartilage loss; assay: Full thickness articular cartilage defect model; assay type: in vivo; settings: 4 weeks after the defect, FIG. 8
Procedure: Next, in order to verify the regeneration of damaged articular cartilage and the suppression of degenerative degeneration, a model of full thickness articular cartilage defect was prepared to examine the effects of rh Activin A administration. Specifically, a 1.4 mmφ total articular cartilage loss was prepared in the femoral intercondylar region using an airtome, and 180 ng of Activin A (rh Activin A) was injected intra-articularly 1 week later.

[4] = system: synovial MSCs; assay: In-vitro differentiation assay of MSCs (cartilage, bone, adipocytes); assay type: cell-based, human
Procedure: In-vitro differentiation assays were performed according to the method described in Colter D C. et al, Proc Natl Acad Sci USA, 2001, 98, pp. 7841 to 7845.
To form chondrogenic spheroids, 2.5×10^5 cells were transferred into 15 mL polypropylene tubes (BD Biosciences) and subjected to centrifugation at 450×g for 10 minutes. Then, the cell pellets were cultured in chondrogenic medium containing 1000 ng/mL rhBMP-2 (Infuse Bone Graft; Medtronic, TN, USA), 10 ng/mL […], and 100 nM dexamethasone (Sigma-Aldrich, MO, USA) for 14 days.
For calcification, cells were cultured in normal growth medium supplemented with 1 nM dexamethasone, 20 mM β-glycerophosphate, and 50 μg/mL ascorbic acid-2-phosphate (Sigma-Aldrich) for 21 days. Calcified nodule formation was visualized by alizarin red staining (Sigma-Aldrich).
For adipogenesis, the cells were cultured for 21 days in MEM-alpha supplemented with 10% FBS, 100 nM dexamethasone (Sigma-Aldrich), 0.5 mM IBMX (isobutyl-1-methylxanthine; Sigma-Aldrich), and 50 μM indomethacin (Wako, Tokyo, Japan). The adipogenic cultures were immobilized and stained with Oil Red O solution (Sigma-Aldrich).

[5] = system: MSCs positive for CD73, CD90, CD105, CD44; assay: Expression analysis of MSC surface antigens (flow cytometry); assay type: cell-based, human; settings: cultured 2 weeks in the presence of rh Activin A; FIG. 6A
Procedure: Cells were isolated by treatment with TrypLE (Thermo Fisher Scientific, MA, USA) for 5 minutes and stained with antibodies as described in Tsuji K. et al, Cell Transplant. 2017, 26(6), pp. 1089 to 1102. The surface antigen positive cell fraction was then measured using FACS Verse Flow Cytometer (BD Biosciences). Note that fluorochrome-conjugated antibodies for the analysis of cell surface markers (CD73, CD90, CD105, and CD44) were purchased from BD Biosciences (NJ).
To evaluate the effect of activin on the stemness of MSCs, they were cultured for 2 weeks in the presence of rh Activin A, and changes in the expression level of MSC surface antigens were examined by flow cytometric analysis.

[6] = system: Wistar rats; assay: MIA-induced arthritis rat model, incapacitance test; assay type: in vivo; settings: intra-articular at day 14 after MIA (400 ng/30 uL in PBS), vs control group; FIG. 9B
Procedure: Wistar rats (Charles River, Japan) aged 10 weeks and weighing 330 to 345 g were used for this study. The rats were divided into two groups (those to be injected with Activin A after injection of mono-iodoacetic acid (MIA), and those to be injected with vehicle after injection of MIA (control)), and subjected to the following experiments.
First, the rats were anesthetized by isoflurane inhalation, and 30 μL of physiological saline containing 1.0 mg MIA was injected into the left knee joint as described in Hoshino T. et al, BMC Musculoskelet Disord., 2018, 19(1): 291. Then, at day 14 after MIA injection, 30 μL of recombinant human Activin A (400 ng/30 μL in PBS) or PBS only as a vehicle was injected. Then, pain avoidance behavior (load asymmetry) between the left limb (MIA-injected side) and the right limb (MIA-uninjected side) was evaluated at day 0 (before injection) and days 1, 3, 7, 14, 17, 19, 21, 24, and 28 after injection.
Load asymmetry was detected by using an incapacitance tester (Linton Instrumentation, Norfolk, UK) with rats in its prismatic Plexiglas case, and the left and right hindlimbs placed on independent force plates. […]
Then, the change from the difference in the percentage of load before administration was then evaluated over time. […]

## Activin A: homodimer of two inhibin βA chains; recombinant human protein purchased from R&D Systems
[1]
  proliferation of rheumatoid arthritis-derived synovial cells: promotes the proliferation
[2]; Activin A alone, MSCs serum-starved 24 hours, within 30 minutes
  phosphorylation of Erk1/2: not detected
[2]; Activin A together with PDGF-AA
  intracellular Erk phosphorylation: no enhancement
[3]; 180 ng intra-articular, safranin O
  degenerative degeneration of articular cartilage around the defect site: significantly suppressed
[3]
  chondrogenic differentiation of the formed tissue: no significant promotion effect
[3]; intra-articular 1 week after defect (rh Activin A 180 ng/knee, rrPDGF-AA 900 ng/knee), vs PBS
  formation of fibrocartilage-like tissue in the articular cartilage defect site: promote the formation of fibrocartilage-like tissue
[4]; added to chondrogenic differentiation medium, pellet culture 2 weeks, FIG. 6C
  production of cartilage matrix: no significant promotive effect
[4]; after 2 weeks of culture in the presence of Activin A, vs control, FIG. 6B
  differentiation induction toward chondrocytic, osteoblastic and adipocytic cells: no significant changes
[5]
  cell population positive for MSC-related antigens (CD73, CD90, CD105, CD44): no change
[6]
  load on MIA-injected hindlimb (pain avoidance behavior): significant improvement
